For the test, the target named is IDH1 R132C (Homo sapiens (Human), UniProt O75874, R132C). The test is described as follows: Biochemical assay for inhibition of mutant IDH1 R132C. The note with it: tested in triplet. The text has this:
The present disclosure provides a biochemical assay method for detecting the IDH inhibition and selectivity of the compounds by detecting IDH enzyme activity directly.
Wild-type IDH enzyme could convert NADP^+ to NADPH when it catalyzes the α-KG producing reaction. Mutant IDH enzyme could convert NADPH to NADP^+ when it catalyzes the D-2-HG producing reaction. So the activity of wild-type and mutant IDH1/2 could be measured by monitoring NADPH level change: in the reaction catalyzed by wild-type IDH1/2, the newly generated NADPH is utilized instantly by coupled diaphorase-resazurin reaction to generate resorufin which is fluorescent (at Excitation 544 nm, Emission 590 nm) and thus NADPH is monitored indirectly; while in the reaction catalyzed by mutant IDH1/2, NADPH is directly monitored as it is fluorescent (at Excitation 340 nm, Emission 460 nm). By monitoring the change of NADPH level in the reaction, the enzyme activity could be determined rapidly and efficiently, IC50 of a compound could also be assayed.
The test compounds were prepared into 50 mM stock solutions in DMSO and stored at −20° C. Each test compound stock was further diluted to obtain a 100× stock solution at a concentration of 200 μM, 100 μM, 50 μM, 25 μM, 12.5 jμM, 6.25 μM and 3.125 μM, respectively, for the final use on the day of test.
Inhibition of Mutant IDHJ (R132H or R132C):
Solution A was prepared by combining 1 M Tris-HCl pH7.5 (300 μL), 5 M NaCl (450 μL), 1 M MgCl2 (150 μL), 1 M DTT (15 μL), 20 mg/mL BSA (37.5 μL), 20 mM NADPH (20 μL), and 0.5 mM α-KG (40 μL), followed by adding deionized water to a final volume of 15 mL.
Reaction buffer was prepared by combining 1 M Tris-HCl pH 7.5 (200 μL), 5 M NaCl (300 μL), 1 M MgCl2 (100 μL), 1 M DTT (10 μL) and 20 mg/mL BSA (25 μL), followed by adding deionized water to a final volume of 10 mL.
Solution B was prepared by combining the reaction buffer (5 mL) and […] IDH1-R132H (5.21 μL) or 107 μM IDH1-R132C (4.67 μL).
148 μL Solution A was added into each sample well of a 96-well plate P1, and then 2 μL of the test compound solution at each concentration and 2 μL of DMSO (negative control/blank) were added into individual sample well respectively. 50 μL of Solution B was added into each of the sample wells having test compounds and one sample well having DMSO only, and 50 μL of reaction buffer was added into another sample well having DMSO only, respectively. P1 was put into BioTek Synergy H4 Microplate reader (BioTek Instruments Inc., Winooski, U.S.), and the program was set as follows: 37° C., shake plate 5 seconds, run kinetic mode, total detection time 20 min, detection intervals 40 seconds, detection mode fluorescence (at Excitation 340 nm, Emission 460 nm). The data were exported, the relative enzyme activity and the half-maximal inhibitory concentration (IC50) for the test compound were calculated. Relative enzyme activity was calculated as the absolute value of the slope of the Emission 460 reads of each well plotted against time (which represents the conversion rate of ca-KG to 2-HG through IDH1 modulated utilization of NADPH). The Dose-response curve was drawn and the IC50 was calculated via fitting. The IDH inhibition and selectivity of each test compound can be evaluated according to the effect of the compounds on the IDH enzyme activity.
The IDH inhibition activity of the compounds were assessed according to Test 5 of the Biological evaluation section. The test for mutant IDH1 R132H/R132C inhibition of each compound was carried out in triplet. For IDH1 R132H, the enzyme activity of exemplary Compounds 16, 21, 22, 23, 24 and 31 is plotted as a function of logarithm of the concentration of the compound in FIGS. 8A-8C, 9A-9C, 10A-10C, 11A-11C, 12A-12C and 13A-13C, respectively. […]

For orientation: IC50 means the concentration at which inhibition is half-maximal.

Sequence of IDH1 R132C (O75874 whole entry R132C): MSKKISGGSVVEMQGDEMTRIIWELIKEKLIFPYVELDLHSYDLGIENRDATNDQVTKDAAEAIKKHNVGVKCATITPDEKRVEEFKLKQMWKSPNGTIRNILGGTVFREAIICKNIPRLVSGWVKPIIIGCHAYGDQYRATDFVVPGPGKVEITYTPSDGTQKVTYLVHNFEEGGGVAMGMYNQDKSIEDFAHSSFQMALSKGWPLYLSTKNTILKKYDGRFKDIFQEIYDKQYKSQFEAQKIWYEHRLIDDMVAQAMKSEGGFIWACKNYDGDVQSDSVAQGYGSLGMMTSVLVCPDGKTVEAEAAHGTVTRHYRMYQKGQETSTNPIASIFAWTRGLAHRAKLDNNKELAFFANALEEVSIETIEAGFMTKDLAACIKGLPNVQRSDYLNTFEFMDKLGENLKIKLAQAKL

In the case of `CCN1Cc2c(ccnc2N[C@@H](C)c2ccc(Oc3ccc(C)cc3)cc2)C1=O` [Compound 16, (S)-2-ethyl-4-(1-(4-(p-tolyloxy)phenyl)ethylamino)-2,3-dihydro-1H-pyrrolo [3,4-c]pyridin-1-one], the IC50 is less than 1.5 µM.

In the case of `CCN1Cc2c(ccnc2N[C@@H](C)c2ccc(Oc3ccccc3)c(F)c2)C1=O` [Compound 23, (S)-2-ethyl-4-((1-(3-fluoro-4-phenoxyphenyl)ethyl)amino)-2,3-dihydro-1H-pyrrolo[3,4-c]pyridin-1-one], the IC50 is less than 1.5 µM.

Values taken from patent US10752626B2, “Iso-citrate dehydrogenase (IDH) inhibitor” (SHANGHAI METON PHARMACEUTICAL CO., LTD, priority 2016, dated 2020).
